Source: patent publication US11584747B2, “Substituted pyridopyrimidinonyl compounds useful as T cell activators” (BRISTOL-MYERS SQUIBB COMPANY, priority 2019, dated 2023)
Where two headings read alike, the source gives them in different places.

Assays:
human DGKα = human DGKα (Homo sapiens (Human), UniProt P23743); assay: DGKα LIPGLO assay (extruded liposome substrate, ADP-Glo luminescence); assay type: biochemical
human DGKζ = human DGKζ (Homo sapiens (Human), UniProt Q13574); assay: DGKζ LIPGLO assay (extruded liposome substrate, ADP-Glo luminescence); assay type: biochemical
[1] = tested on: human venous whole blood (IFN-γ); assay: Human whole blood IFN-γ assay; assay type: cell-based
Experimental: Human venous whole blood (22.5 μL per well), obtained from healthy donors, was pre-treated with compounds for one hour at 37° C. in a humidified 95% air/5% CO2 incubator. The blood was stimulated with 2.5 μL anti-human CD3 and anti-CD28 mAb at a final concentration of 1 μg/mL each for 24 hours at 37° C. IFN-γ in the supernatants was measured using AlphLISA kit (Cat #AL217).

[2] = liposome assay, read-out: DGK alpha LIPGLO IC50
[3] = liposome assay, read-out: DGK zeta LIPGLO IC50
[4] = whole blood, normalized to 3 μM reference compound as 100% activation, read-out: IFN-γ Whole Blood Normalized EC50
[5] = Homo sapiens, whole blood, normalized to 3 μM reference compound as 100% activation, read-out: IFN-γ Whole Blood Normalized EC50

human DGKα, sequence (P23743 whole entry, looked up): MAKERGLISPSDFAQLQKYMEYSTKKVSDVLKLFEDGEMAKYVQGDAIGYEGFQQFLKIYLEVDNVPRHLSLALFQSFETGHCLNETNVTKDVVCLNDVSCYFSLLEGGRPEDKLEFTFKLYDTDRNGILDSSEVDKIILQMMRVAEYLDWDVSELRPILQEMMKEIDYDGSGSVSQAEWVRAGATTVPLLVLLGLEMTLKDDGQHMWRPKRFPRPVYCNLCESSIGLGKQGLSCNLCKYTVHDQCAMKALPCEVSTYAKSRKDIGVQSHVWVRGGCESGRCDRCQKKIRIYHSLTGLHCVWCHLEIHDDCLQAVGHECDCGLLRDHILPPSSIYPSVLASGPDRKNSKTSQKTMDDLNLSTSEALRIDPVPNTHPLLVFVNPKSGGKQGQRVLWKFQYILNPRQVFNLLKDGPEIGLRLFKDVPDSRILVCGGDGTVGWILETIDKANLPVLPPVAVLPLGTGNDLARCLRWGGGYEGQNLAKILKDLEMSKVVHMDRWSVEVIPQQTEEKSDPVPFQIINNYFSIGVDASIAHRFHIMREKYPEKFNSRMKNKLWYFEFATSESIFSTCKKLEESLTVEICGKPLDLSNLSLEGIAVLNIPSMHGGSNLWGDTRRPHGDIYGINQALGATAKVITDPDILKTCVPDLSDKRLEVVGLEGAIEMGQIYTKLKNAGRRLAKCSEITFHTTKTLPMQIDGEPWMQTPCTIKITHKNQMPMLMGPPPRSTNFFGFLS
human DGKζ, sequence (Q13574 other isoform, or with tags, fused parts or gaps): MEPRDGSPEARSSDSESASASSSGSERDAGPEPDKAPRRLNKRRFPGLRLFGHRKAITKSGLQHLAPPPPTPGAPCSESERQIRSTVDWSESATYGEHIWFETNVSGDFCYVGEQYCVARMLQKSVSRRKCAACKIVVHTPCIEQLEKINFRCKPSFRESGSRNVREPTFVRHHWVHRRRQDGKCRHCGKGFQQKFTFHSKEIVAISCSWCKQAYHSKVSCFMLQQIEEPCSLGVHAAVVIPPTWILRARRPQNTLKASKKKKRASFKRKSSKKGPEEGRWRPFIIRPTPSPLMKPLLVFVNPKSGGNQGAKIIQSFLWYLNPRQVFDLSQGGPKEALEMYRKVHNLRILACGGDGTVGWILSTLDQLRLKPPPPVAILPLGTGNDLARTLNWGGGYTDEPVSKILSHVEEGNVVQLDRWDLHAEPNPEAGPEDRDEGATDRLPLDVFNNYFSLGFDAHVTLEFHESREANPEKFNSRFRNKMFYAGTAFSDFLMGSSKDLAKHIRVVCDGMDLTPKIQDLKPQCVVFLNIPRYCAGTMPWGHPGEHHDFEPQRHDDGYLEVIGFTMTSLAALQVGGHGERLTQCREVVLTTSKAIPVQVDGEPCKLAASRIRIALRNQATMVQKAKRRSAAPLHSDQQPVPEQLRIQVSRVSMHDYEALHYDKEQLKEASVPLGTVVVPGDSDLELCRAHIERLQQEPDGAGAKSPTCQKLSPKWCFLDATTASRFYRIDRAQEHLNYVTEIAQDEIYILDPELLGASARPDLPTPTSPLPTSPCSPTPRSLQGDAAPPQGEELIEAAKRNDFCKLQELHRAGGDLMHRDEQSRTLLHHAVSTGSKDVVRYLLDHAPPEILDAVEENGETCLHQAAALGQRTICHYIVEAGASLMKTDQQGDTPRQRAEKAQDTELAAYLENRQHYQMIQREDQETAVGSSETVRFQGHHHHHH

Row | SMILES | IC50 (human DGKα; [2]) | IC50 (human DGKζ; [3]) | EC50 [1, 4] | EC50 [1, 5] | IC50 (human DGKα; liposome (LIPGLO) assay, read-out: DGK alpha (liposome assay) IC50) | IC50 (human DGKζ; liposome (LIPGLO) assay, read-out: DGK zeta (liposome assay) IC50) | EC50 ([1]; Homo sapiens, 24 h, human whole blood, anti-CD3 plus anti-CD28 stimulation, 24 hours, read-out: IFN-γ Whole Blood EC50)
1 | CC[C@H]1CN(C(C)c2ccc(OC(F)(F)F)c(F)c2)[C@H](CC)CN1c1nc(=O)n(C)c2ccc(C#N)nc12 (single isomer, unassigned) [Example 31] | 1.7 µM | 0.96 µM | 0.27 µM |  |  |  | 
2 | CC[C@@H]1CN(c2nc(=O)n(C)c3ccc(C#N)nc23)[C@@H](C)CN1C(C)c1ccc(C2CC2)cc1 (single isomer, unassigned) [Example 63] | 0.04 µM | 0.021 µM | 0.07 µM |  |  |  | 
3 | CC[C@@H]1CN(c2nc(=O)n(C)c3ccc(C#N)nc23)[C@@H](C)CN1C(C)c1ccc(OC)cc1 (single isomer, unassigned) [Example 57] | 0.96 µM | 0.93 µM | 1.9 µM |  |  |  | 
4 | CC[C@H]1CN(C(C)c2ccc(C3CC3)cc2)[C@H](CC)CN1c1nc(=O)n(C)c2ccc(C#N)nc12 (single isomer, unassigned) [Example 28] | 1.57 µM | 2.65 µM | 2.04 µM |  |  |  | 
5 | COC[C@@H]1CN(c2nc(=O)n(C)c3ccc(C#N)nc23)[C@@H](C)CN1C(c1ccc(F)cc1)c1ccc(C(F)(F)F)cn1 (single isomer, unassigned) [Example 178] | 0.29 µM | 0.13 µM |  | 0.091 µM |  |  | 
6 | CC[C@H]1CN(C(C)c2ccc3c(c2)OC(F)(F)O3)[C@H](CC)CN1c1nc(=O)n(C)c2ccc(C#N)nc12 (single isomer, unassigned) [Example 15] | 0.49 µM | 1.22 µM | 1.74 µM |  |  |  | 
7 | CC[C@@H]1CN(c2nc(=O)n(C)c3ccc(C#N)nc23)[C@@H](C)CN1C(c1ccc(F)cc1)c1ccc(C2CC2)cn1 (single isomer, unassigned) [Example 76] | 0.079 µM | 0.023 µM | 0.18 µM |  |  |  | 
8 | C[C@@H]1CN(c2nc(=O)n(C)c3ccc(C#N)nc23)[C@@H](C)CN1C(c1ccc(F)cc1)c1nc(C2CC2)cs1 (single isomer, unassigned) [Example 159] | 0.094 µM | 0.038 µM | 0.25 µM |  |  |  | 
9 | CC(c1ccc2c(c1)OC(F)(F)O2)N1C[C@H](C)N(c2nc(=O)n(C)c3ccc(C#N)nc23)C[C@H]1C (single isomer, unassigned) [Example 166] | 5.39 µM | 0.33 µM | 0.5 µM |  |  |  | 
10 | C[C@@H]1CN(c2nc(=O)n(C)c3ccc(C#N)nc23)[C@@H](C)CN1C(c1ccc(Cl)cc1)c1ccc(Cl)cc1 [Example 373, 4-((2 S, 5R)-4-(bis(4-chlorophenyl)methyl)-2,5-dimethylpiperazin-1-yl)-1-methyl-2-oxo-1,2-dihydropyrido[3,2-d]pyrimidine-6-carbonitrile] |  |  |  |  | 0.86 µM | 2.55 µM | 0.17 µM
11 | C[C@@H]1CN(c2nc(=O)n(C)c3ccc(C#N)nc23)[C@@H](C)CN1Cc1ccc2c(c1)OC(F)(F)O2 [Example 135, 4-((2S,5R)-4-((2,2-difluorobenzo[d][1,3]dioxol-5-yl)methyl)-2,5-dimethylpiperazin-1-yl)-1-methyl-2-oxo-1,2-dihydropyrido[3,2-d]pyrimidine-6-carbonitrile] | 4.5 µM | 1.41 µM |  | 10.7 µM |  |  | 
12 | CC[C@H]1CN(C(C)c2ccc(OC(F)(F)F)cc2)[C@H](C)CN1c1nc(=O)n(C)c2ccc(C#N)nc12 (stereo partly drawn) [Example 123, 4-((2S,5R)-2-ethyl-5-methyl-4-(1-(4-(trifluoromethoxy)phenyl)ethyl)piperazin-1-yl)-1-methyl-2-oxo-1,2-dihydropyrido[3,2-d]pyrimidine-6-carbonitrile] | 1.38 µM | 1.33 µM |  | 2.57 µM |  |  | 
13 | CCC(c1ccc(OC(F)(F)F)cc1)N1C[C@H](C)N(c2nc(=O)n(C)c3ccc(C#N)nc23)C[C@H]1C (single isomer, unassigned) [Example 155] | 0.25 µM | 0.75 µM |  |  |  |  | 
14 | CC[C@H]1CN(C(C)c2ccc(C(F)(F)F)cc2F)[C@H](C)CN1c1nc(=O)n(C)c2ccc(C#N)nc12 (stereo partly drawn) [Example 119, 4-((2S,5R)-2-ethyl-4-(1-(2-fluoro-4-(trifluoromethyl)phenyl)ethyl)-5-methylpiperazin-1-yl)-1-methyl-2-oxo-1,2-dihydropyrido[3,2-d]pyrimidine-6-carbonitrile] | 0.65 µM | 0.73 µM |  |  |  |  | 
15 | CC[C@H]1CN(C(C)c2ccc(OC(F)(F)F)cc2)[C@H](C)CN1c1nc(=O)n(C)c2ccc(C#N)nc12 (stereo partly drawn) [Example 122, 4-((2S,5R)-2-ethyl-5-methyl-4-(1-(4-(trifluoromethoxy)phenyl)ethyl)piperazin-1-yl)-1-methyl-2-oxo-1,2-dihydropyrido[3,2-d]pyrimidine-6-carbonitrile] | 0.032 µM | 1.96 µM |  |  |  |  | 
16 | CCC(c1ccc(OC(F)(F)F)cc1F)N1C[C@H](CC)N(c2nc(=O)n(C)c3ccc(C#N)nc23)C[C@H]1CC (stereo partly shown) [Example 11] | 0.005 µM | 0.06 µM |  |  |  |  | 
17 | CCC(c1ccc2c(c1)OC(F)(F)O2)N1C[C@H](C)N(c2nc(=O)n(C)c3ccc(C#N)nc23)C[C@H]1CC (single isomer, unassigned) [Example 80] | 2.16 µM | 1.18 µM |  |  |  |  | 
18 | CC[C@H]1CN(C(C)c2ccc(OC)cc2)[C@H](CC)CN1c1nc(=O)n(C)c2ccc(C#N)nc12 (single isomer, unassigned) [Example 16] | 0.045 µM | 0.037 µM |  |  |  |  | 
19 | CCC(c1ccc(OC(F)F)cc1)N1C[C@H](C)N(c2nc(=O)n(C)c3ccc(C#N)nc23)C[C@H]1CC (single isomer, unassigned) [Example 77] | 0.036 µM | 0.014 µM |  |  |  |  | 
20 | CC[C@H]1CN(C(C)c2ccc(C(F)(F)F)cc2F)[C@H](C)CN1c1nc(=O)n(C)c2ccc(C#N)nc12 (stereo partly drawn) [Example 118, 4-((2S,5R)-2-ethyl-4-(1-(2-fluoro-4-(trifluoromethyl)phenyl)ethyl)-5-methylpiperazin-1-yl)-1-methyl-2-oxo-1,2-dihydropyrido[3,2-d]pyrimidine-6-carbonitrile] | 0.095 µM | 0.016 µM |  |  |  |  | 
21 | CC[C@@H]1CN(c2nc(=O)n(C)c3ccc(C#N)nc23)[C@@H](C)CN1C(C)c1ccc2c(c1)OC(F)(F)O2 (single isomer, unassigned) [Example 72] | 1.5 µM |  | 0.79 µM |  |  |  | 
22 | CC[C@H]1CN(C(C)c2ccc(OC(C)C)cc2)[C@H](CC)CN1c1nc(=O)n(C)c2ccc(C#N)nc12 (single isomer, unassigned) [Example 18] | 0.03 µM | 0.025 µM |  |  |  |  | 
23 | CC(c1ccc(OC(F)F)cc1)N1C[C@H](C)N(c2nc(=O)n(C)c3ccc(C#N)nc23)C[C@H]1C (single isomer, unassigned) [Example 156] | 0.01 µM | 0.12 µM |  |  |  |  | 
24 | CC[C@H]1CN(C(C)c2ccc(C(F)(F)F)cc2N2CCOCC2)[C@H](CC)CN1c1nc(=O)n(C)c2ccc(C#N)nc12 (stereo partly drawn) [Example 195, 4-((2S,5R)-2,5-diethyl-4-(1-(2-morpholino-4-(trifluoromethyl)phenyl)ethyl)piperazin-1-yl)-1-methyl-2-oxo-1,2-dihydropyrido[3,2-d]pyrimidine-6-carbonitrile] | 125 µM | 5.07 µM |  |  |  |  | 
25 | CC(c1ccc(F)cc1)N1C[C@H](C)N(c2nc(=O)n(C)c3ccc(C#N)nc23)C[C@H]1C (single isomer, unassigned) [Example 128] | 0.026 µM | 0.11 µM |  |  |  |  | 
26 | CC[C@H]1CN(C(C)c2ccc(OC(F)(F)F)cc2)[C@H](CC)CN1c1nc(=O)n(C)c2ccc(C#N)nc12 (single isomer, unassigned) [Example 10] | 0.37 µM | 0.97 µM |  |  |  |  | 
